System: 5-hydroxy tryptamine induced bronchoconstriction
Assay: Bronchodilator activity: inhibition of 5-hydroxy tryptamine induced bronchoconstriction (Konzett-Rossler preparation)
Assay type: in vivo
Conditions: Cavia porcellus, iv; anaesthetised, artificially respired guinea pig
Description: The compounds were examined for their ability to inhibit 5-hydroxy tryptamine induced bronchoconstriction in the anaethetised, artifically respired guinea pig (Konzett-Rossler preparation). The compounds were administered intravenously.

Row | Structure (SMILES) | ED50 [µg/kg]
1 | CCCCCCC(C)(O)CCN1C(=O)N(C)C(=O)C1CCCCCCCC(C)O (centres unmarked) [Compound 2] | 5.5
2 | CCCCCCC(C)(O)CCN1C(=O)N(C)C(=O)C1C/C=C\CCCCC(C)O (centres unmarked) [Compound 3] | 3.6

Reference: patent EP0023083A1, “Oxodiazole derivatives, processes for their production and pharmaceutical composition containing them” (BEECHAM GROUP PLC, priority 1979, dated 1981)
